The numbers were not newly measured in patent publication US20150191797A1, “SYSTEMS AND METHODS FOR DIAGNOSING A PREDISPOSITION TO COLON CANCER” (Institute for Cancer Research d/b/a The Research Institute …, priority 2012, published 2015), which cites them from elsewhere.

Each structure is given as a SMILES string.

This series deals with Werner cells. To be noted: camptothecin doses of 20-50 nM.

In the case of `CC[C@@]1(O)C(=O)OCc2c1cc1n(c2=O)Cc2cc3ccccc3nc2-1` [Camptothecin, camptothecin], the “effect on cell cycle” value is recorded as “S phase delay” and the increase in apoptosis was 5-6 fold.
